Reference: patent publication EP4755888A1 (ILAb Co., Ltd., priority 2023, dated 2025)

Biological target: PD-1/PD-L1 (Homo sapiens, UniProt Q9NZQ7)
Experiment: TR-FRET PD-1/PD-L1 binding inhibition at the molecular level (free proteins)
Conditions: Tag1-PD-L1 and Tag2-PD-1 proteins, twelve concentrations from 200 nM, 2 hours at room temperature, read-out: FRET assay (IC50)
Procedure, shortened: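 HTRF read-out at 665/620 nm after 2 h at room temperature. Detection used anti-Tag1 Eu cryptate plus anti-Tag2 XL665 antibodies. Tagged PD-L1 and PD-1 proteins were pre-mixed with compound across twelve […] 1:2 dilutions starting at 200 nM.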

Chain of PD-1/PD-L1 (Q9NZQ7 19-238 limits assumed): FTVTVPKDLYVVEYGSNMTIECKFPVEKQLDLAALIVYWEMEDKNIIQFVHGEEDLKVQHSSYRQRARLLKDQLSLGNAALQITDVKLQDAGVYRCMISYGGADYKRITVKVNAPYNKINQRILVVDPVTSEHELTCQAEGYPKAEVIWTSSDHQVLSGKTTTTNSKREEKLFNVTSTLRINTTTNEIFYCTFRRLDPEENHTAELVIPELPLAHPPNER

Row | SMILES | IC50 [nM]
1 | Cc1c(NC(=O)c2cc3n(n2)CCCC3NC[C@@H]2CCC(=O)N2)cccc1-c1cccc(NC(=O)c2nc3c(n2C)CCN(CCC24CCC(C(=O)O)(CC2)C4)C3)c1C (stereo partly drawn) [Compound 49, 4-(2-(2-((2,2'-dimethyl-3'-(4-((((S)-5-oxopyrrolidin-2-yl)methyl)amino)-4,5,6,7-tetrahydropyrazolo[1,5-a]pyridine-2-carboxamido)-[1,1'-biphenyl]-3-yl)carbamoyl)-1-methyl-6,7-dihydro-1H-imidazo[4,5-c]pyridin-5(4H)-yl)ethyl)bicyclo[2.2.1]heptane-1-carboxylic acid] | < 10
2 | Cc1c(NC(=O)c2cc3n(n2)CCCC3NCC(=O)O)cccc1-c1cccc(NC(=O)c2nc3c(n2C)CCN(CCC24CCC(C(=O)O)(CC2)C4)C3)c1C (stereo not drawn) [Compound 50, 4-(2-(2-((3'-(4-((carboxymethyl)amino)-4,5,6,7-tetrahydropyrazolo[1,5-a]pyridine-2-carboxamido)-2,2'-dimethyl-[1,1'-biphenyl]-3-yl)carbamoyl)-1-methyl-6,7-dihydro-1H-imidazo[4,5-c]pyridin-5(4H)-yl)ethyl)bicyclo[2.2.1]heptane-1-carboxylic acid] | < 10
3 | Cc1c(NC(=O)c2cc3n(n2)CCCC3NC(C)(C)C(=O)O)cccc1-c1cccc(NC(=O)c2nc3c(n2C)CCN(CCC24CCC(C(=O)O)(CC2)C4)C3)c1C (stereo not drawn) [Compound 51, 4-(2-(2-((3'-(4-((2-carboxypropan-2-yl)amino)-4,5,6,7-tetrahydropyrazolo[1,5-a]pyridine-2-carboxamido)-2,2'-dimethyl-[1,1'-biphenyl]-3-yl)carbamoyl)-1-methyl-6,7-dihydro-1H-imidazo[4,5-c]pyridin-5(4H)-yl)ethyl)bicyclo[2.2.1]heptane-1-carboxylic acid] | < 10
4 | CC(=O)NCCNC1CCCn2nc(C(=O)Nc3cccc(-c4cccc(NC(=O)c5nc6c(n5C)CCN(CCC57CCC(C(=O)O)(CC5)C7)C6)c4Cl)c3Cl)cc21 (stereo not drawn) [Compound 52, 4-(2-(2-((3'-(4-((2-acetamidoethyl)amino)-4,5,6,7-tetrahydropyrazolo[1,5-a]pyridine-2-carboxamido)-2,2'-dichloro-[1,1'-biphenyl]-3-yl)carbamoyl)-1-methyl-6,7-dihydro-1H-imidazo[4,5-c]pyridin-5(4H)-yl)ethyl)bicyclo[2.2.1]heptane-1-carboxylic acid] | < 10
5 | Cn1c(C(=O)Nc2cccc(-c3cccc(NC(=O)c4cc5n(n4)CCCC5NCCO)c3Cl)c2Cl)nc2c1CCN(CCC13CCC(C(=O)O)(CC1)C3)C2 (stereo not drawn) [Compound 53, 4-(2-(2-((2,2'-dichloro-3'-(4-((2-hydroxyethyl)amino)-4,5,6,7-tetrahydropyrazolo[1,5-a]pyridine-2-carboxamido)-[1,1'-biphenyl]-3-yl)carbamoyl)-1-methyl-6,7-dihydro-1H-imidazo[4,5-c]pyridin-5(4H)-yl)ethyl)bicyclo[2.2.1]heptane-1-carboxylic acid] | < 10
6 | Cn1c(C(=O)Nc2cccc(-c3cccc(NC(=O)c4cc5n(n4)CCCC5NC[C@@H]4CCC(=O)N4)c3Cl)c2Cl)nc2c1CCN(CCC13CCC(C(=O)O)(CC1)C3)C2 (stereo partly drawn) [Compound 54, 4-(2-(2-((2,2'-dichloro-3'-(4-((((S)-5-oxopyrrolidin-2-yl)methyl)amino)-4,5,6,7-tetrahydropyrazolo[1,5-a]pyridine-2-carboxamido)-[1,1'-biphenyl]-3-yl)carbamoyl)-1-methyl-6,7-dihydro-1H-imidazo[4,5-c]pyridin-5(4H)-yl)ethyl)bicyclo[2.2.1]heptane-1-carboxylic acid] | 10 to 100
7 | Cn1c(C(=O)Nc2cccc(-c3cccc(NC(=O)c4cc5n(n4)CCCC5NCC(=O)O)c3Cl)c2Cl)nc2c1CCN(CCC13CCC(C(=O)O)(CC1)C3)C2 (stereo not drawn) [Compound 56, 4-(2-(2-((3'-(4-((carboxymethyl)amino)-4,5,6,7-tetrahydropyrazolo[1,5-a]pyridine-2-carboxamido)-2,2'-dichloro-[1,1'-biphenyl]-3-yl)carbamoyl)-1-methyl-6,7-dihydro-1H-imidazo[4,5-c]pyridin-5(4H)-yl)ethyl)bicyclo[2.2.1]heptane-1-carboxylic acid] | < 10
8 | Cn1c(C(=O)Nc2cccc(-c3cccc(NC(=O)c4cc5n(n4)CCCC5N4CC[C@@H](C(=O)O)C4)c3Cl)c2Cl)nc2c1CCN(CCC13CCC(C(=O)O)(CC1)C3)C2 (stereo partly drawn) [Compound 57, (3R)-1-(2-((3'-(5-(2-(4-carboxybicyclo[2.2.1]heptan-1-yl)ethyl)-1-methyl-4,5,6,7-tetrahydro-1H-imidazo[4,5-c]pyridine-2-carboxamido)-2,2'-dichloro-[1,1'-biphenyl]-3-yl)carbamoyl)-4,5,6,7-tetrahydropyrazolo[1,5-a]pyridin-4-yl)pyrrolidine-3-carboxylic acid] | < 10
9 | Cn1c(C(=O)Nc2cccc(-c3cccc(NC(=O)c4cc5n(n4)CCCC5N4CCC(O)CC4)c3Cl)c2Cl)nc2c1CCN(CCC13CCC(C(=O)O)(CC1)C3)C2 (stereo not drawn) [Compound 58, 4-(2-(2-((2,2'-dichloro-3'-(4-(4-hydroxypiperidin-1-yl)-4,5,6,7-tetrahydropyrazolo[1,5-a]pyridine-2-carboxamido)-[1,1'-biphenyl]-3-yl)carbamoyl)-1-methyl-6,7-dihydro-1H-imidazo[4,5-c]pyridin-5(4H)-yl)ethyl)bicyclo[2.2.1]heptane-1-carboxylic acid] | 10 to 100
10 | Cn1c(C(=O)Nc2cccc(-c3cccc(NC(=O)c4cc5n(n4)CCCC5N4CCC(C(=O)O)CC4)c3Cl)c2Cl)nc2c1CCN(CCC13CCC(C(=O)O)(CC1)C3)C2 (stereo not drawn) [Compound 59, 1-(2-((3'-(5-(2-(4-carboxybicyclo[2.2.1]heptan-1-yl)ethyl)-1-methyl-4,5,6,7-tetrahydro-1H-imidazo[4,5-c]pyridine-2-carboxamido)-2,2'-dichloro-[1,1'-biphenyl]-3-yl)carbamoyl)-4,5,6,7-tetrahydropyrazolo[1,5-a]pyridin-4-yl)piperidine-4-carboxylic acid] | < 10
11 | Cn1c(C(=O)Nc2cccc(-c3cccc(NC(=O)c4cc5n(n4)CCCC5NC(C)(C)C(=O)O)c3Cl)c2Cl)nc2c1CCN(CCC13CCC(C(=O)O)(CC1)C3)C2 (stereo not drawn) [Compound 60, 4-(2-(2-((3'-(4-((2-carboxypropan-2-yl)amino)-4,5,6,7-tetrahydropyrazolo[1,5-a]pyridine-2-carboxamido)-2,2'-dichloro-[1,1'-biphenyl]-3-yl)carbamoyl)-1-methyl-6,7-dihydro-1H-imidazo[4,5-c]pyridin-5(4H)-yl)ethyl)bicyclo[2.2.1]heptane-1-carboxylic acid] | < 10
12 | Cc1c(NC(=O)c2cc3n(n2)CCCC3O)cccc1-c1cccc(-c2nc3cc(CN4CC[C@@H](C(=O)O)C4)cc(C#N)c3o2)c1C (stereo partly drawn) [Compound 61, (3R)-1-((7-cyano-2-(3'-(4-hydroxy-4,5,6,7-tetrahydropyrazolo[1,5-a]pyridine-2-carboxamido)-2,2'-dimethyl-[1,1'-biphenyl]-3-yl)benzo[d]oxazol-5-yl)methyl)pyrrolidine-3-carboxylic acid] | < 10
13 | CC(=O)NCCNC1CCCn2nc(C(=O)Nc3cccc(-c4cccc(-c5nc6cc(CN7CC[C@@H](C(=O)O)C7)cc(C#N)c6o5)c4C)c3C)cc21 (stereo partly drawn) [Compound 62, (3R)-1-((2-(3'-(4-((2-acetamidoethyl)amino)-4,5,6,7-tetrahydropyrazolo[1,5-a]pyridine-2-carboxamido)-2,2'-dimethyl-[1,1'-biphenyl]-3-yl)-7-cyanobenzo[d]oxazol-5-yl)methyl)pyrrolidine-3-carboxylic acid] | < 10
14 | Cc1c(NC(=O)c2cc3n(n2)CCCC3NCCO)cccc1-c1cccc(-c2nc3cc(CN4CC[C@@H](C(=O)O)C4)cc(C#N)c3o2)c1C (stereo partly drawn) [Compound 64, (3R)-1-((7-cyano-2-(3'-(4-((2-hydroxyethyl)amino)-4,5,6,7-tetrahydropyrazolo[1,5-a]pyridine-2-carboxamido)-2,2'-dimethyl-[1,1'-biphenyl]-3-yl)benzo[d]oxazol-5-yl)methyl)pyrrolidine-3-carboxylic acid] | < 10
15 | Cc1c(NC(=O)c2cc3n(n2)CCCC3NC[C@@H]2CCC(=O)N2)cccc1-c1cccc(-c2nc3cc(CN4CC[C@@H](C(=O)O)C4)cc(C#N)c3o2)c1C (stereo partly drawn) [Compound 65, (3R)-1-((7-cyano-2-(2,2'-dimethyl-3'-(4-((((S)-5-oxopyrrolidin-2-yl)methyl)amino)-4,5,6,7-tetrahydropyrazolo[1,5-a]pyridine-2-carboxamido)-[1,1'-biphenyl]-3-yl)benzo[d]oxazol-5-yl)methyl)pyrrolidine-3-carboxylic acid] | < 10
16 | Cc1c(NC(=O)c2cc3n(n2)CCCC3NCC(=O)O)cccc1-c1cccc(-c2nc3cc(CN4CC[C@@H](C(=O)O)C4)cc(C#N)c3o2)c1C (stereo partly drawn) [Compound 66, (3R)-1-((2-(3'-(4-((carboxymethyl)amino)-4,5,6,7-tetrahydropyrazolo[1,5-a]pyridine-2-carboxamido)-2,2'-dimethyl-[1,1'-biphenyl]-3-yl)-7-cyanobenzo[d]oxazol-5-yl)methyl)pyrrolidine-3-carboxylic acid] | < 10
17 | N#Cc1cc(CN2CC[C@@H](C(=O)O)C2)cc2nc(-c3cccc(-c4cccc(NC(=O)c5cc6n(n5)CCCC6O)c4Cl)c3Cl)oc12 (stereo partly drawn) [Compound 67, (3R)-1-((7-cyano-2-(2,2'-dichloro-3'-(4-hydroxy-4,5,6,7-tetrahydropyrazolo[1,5-a]pyridine-2-carboxamido)-[1,1'-biphenyl]-3-yl)benzo[d]oxazol-5-yl)methyl)pyrrolidine-3-carboxylic acid] | < 10
18 | N#Cc1cc(CN2CC[C@@H](C(=O)O)C2)cc2nc(-c3cccc(-c4cccc(NC(=O)c5cc6n(n5)CCCC6NC[C@@H]5CCC(=O)N5)c4Cl)c3Cl)oc12 (stereo partly drawn) [Compound 68, (3R)-1-((7-cyano-2-(2,2'-dichloro-3'-(4-((((S)-5-oxopyrrolidin-2-yl)methyl)amino)-4,5,6,7-tetrahydropyrazolo[1,5-a]pyridine-2-carboxamido)-[1,1'-biphenyl]-3-yl)benzo[d]oxazol-5-yl)methyl)pyrrolidine-3-carboxylic acid] | < 10
